Source: PubChem BioAssay AID1963834 (Molecular Pharmacology Branch, DTP, NCI, 2024)
“And” between values parts separate entries of the source, which are not always exact repeats. Equal entries are not always repeated.

System: 873145-292-R-J1-PDC complex spheroid viability
Assay: Anticancer human tumor 873145-292-R-J1-PDC patient-derived renal clear cell carcinoma cell line growth inhibition [POLQ]
Conditions: for viability, T/C: stronger effect = lower value; active = viability on the fitted dose curve at most 10% of control; inactive = the rest
Procedure: Multicellular complex tumor spheroid response to Polymerase (POL) inhibitors (novobiocin, ART-558, RP6685) in combination with a variety of drugs and investigational agents in selected tumor cell lines
The POL inhibitors (novobiocin, ART-558, and RP6685) were evaluated both individually and in combination with standard of care and investigational anticancer small molecules within a complex spheroid model of solid tumors. . Complex spheroids include a stromal component modeled by human endothelial cells (HUVEC) and fibroblasts modeled by human mesenchymal stem cells (MSCs). The concentration ranges selected for each drug and investigational agent were based upon clinically achievable concentrations if the clinical Cmax of the agent was known.
Compounds. The drugs and investigational agents: novobiocin (NSC847541), ART-558 (NSC835418), RP-6685 (NSC848927), peposertib (NSC802822), ceralasertib (NSC780249), elimusertib (NSC800525), camonsertib (NSC841442), AZD-1390 (NSC803789), olaparib (NSC753686), talazoparib (NSC767125), rucaparib (NSC756644), sotorasib (NSC818433), MRTX-1133 (NSC836407), SN-38 (NSC673596), topotecan (NSC609699), epotoside (NSC141540), doxorubicin (NSC123127), gemcitabine (NSC613327), 5-fluorouracil (NSC19893), paclitaxel (NSC125973), vemurafenib (NSC761431), MSA-2 (NSC828583), SN-011 (NSC837082), adavosertib (NSC754352), prexasertib (NSC758257), carboplatin (NSC241240) and oxaliplatin (NSC266046), were obtained from the National Cancer Institute (NCI) Developmental Therapeutics Program Chemical Repository (21). The FDA-approved anticancer drug set is available from the Developmental Therapeutics Program at https://dtp.cancer.gov/organization/dscb/obtaining/. […] The stock solutions were prepared in dimethyl sulfoxide (DMSO, Sigma-Aldrich, St. Louis, MO, cat. D2650), except for the platinum compounds which were prepared in saline (Quality Biological, Gaithersburg, MD, cat. 114-055-101), at 800-fold the tested concentration and stored at -70 degrees C prior to their use. All drugs and investigational agents were tested over a range starting from a high concentration at or near the clinical Cmax and decreasing in half-log increments. If the clinical Cmax for an agent had not been determined, the highest concentration tested was 10 microM, except for SN-38, which was tested at a high concentration of 1 microM.
Cell Culture. All cells were maintained in an incubator at 37 degrees C and 5% CO2 with 95% humidity. The PDC lines were cultured according to standard operating procedures established by the NCI PDMR (https://pdmr.cancer.gov). Table 3 of the manuscript, lists the cell lines along with the number of the three cell types plated to form the mct-spheroids and media for tumor cell growth. After thawing, all PDC lines, except 997537-175-T-J1-PDC and 415267-285-R-J2-PDC, were cultured in Matrigel-coated flasks prepared with a working solution of 1X Ham's F-12 nutrient mix, without supplementation (Thermo Fisher Scientific, cat. 11765054), 100 U/mL penicillin-streptomycin (Thermo Fisher Scientific, cat. 15140122), and 2.5% Matrigel (Corning Inc., Corning, NY, cat. 354248) for the first three passages. The two PDC lines 997537-175-T-J1-PDC and 415267-285-R-J2-PDC were cultured on uncoated flasks. The 857933-349-R-J2-PDC line was cultured in 6C/Colon 1B media containing advanced DMEM/F-12 (Thermo Fisher Scientific, cat. 12634028), 10 mM HEPES (Thermo Fisher Scientific, cat. 15630080), 1X GlutaMAX supplement (Thermo Fisher Scientific, cat. 35050061), 0.1 mg/mL primocin (InvivoGen, San Diego, CA, cat. ant-pm-2), 10% defined fetal bovine serum, heat inactivated (HyClone Laboratories Inc., Logan, UT, cat. SH30070.03HI), 50% L-WRN conditioned media (ATCC, cat. CRL-3276), 1.25 mM N-Acetyl-L-cysteine (Sigma-Aldrich, cat. A9165), 10 mM nicotinamide (Sigma-Aldrich, cat. N0636), 1X B-27 supplement (Thermo Fisher Scientific, cat. 17504044), 1X N-2 supplement (Thermo Fisher Scientific, cat. […]

[1] = curve of first compound, second compound 0.0316 µM
[2] = curve of first compound, second compound 0.1 µM
[3] = curve of first compound, second compound 0.316 µM
[4] = curve of first compound, second compound 1 µM
[5] = curve of first compound, second compound 3.16 µM
[6] = curve of first compound, second compound 10 µM
[7] = second compound 0.0316 µM, first compound 0.0316 µM
[8] = second compound 0.0316 µM, first compound 0.1 µM
[9] = second compound 0.0316 µM, first compound 0.316 µM
[10] = second compound 0.0316 µM, first compound 1 µM
[11] = second compound 0.0316 µM, first compound 3.16 µM
[12] = second compound 0.0316 µM, first compound 10 µM
[13] = second compound 0.1 µM, first compound 0.0316 µM
[14] = second compound 0.1 µM, first compound 0.1 µM
[15] = second compound 0.1 µM, first compound 0.316 µM
[16] = second compound 0.1 µM, first compound 1 µM
[17] = second compound 0.1 µM, first compound 3.16 µM
[18] = second compound 0.1 µM, first compound 10 µM
[19] = second compound 0.316 µM, first compound 0.0316 µM
[20] = second compound 0.316 µM, first compound 0.1 µM
[21] = second compound 0.316 µM, first compound 0.316 µM
[22] = second compound 0.316 µM, first compound 1 µM
[23] = second compound 0.316 µM, first compound 3.16 µM
[24] = second compound 0.316 µM, first compound 10 µM
[25] = second compound 1 µM, first compound 0.0316 µM
[26] = second compound 1 µM, first compound 0.1 µM
[27] = second compound 1 µM, first compound 0.316 µM
[28] = second compound 1 µM, first compound 1 µM
[29] = second compound 1 µM, first compound 3.16 µM
[30] = second compound 1 µM, first compound 10 µM
[31] = second compound 3.16 µM, first compound 0.0316 µM
[32] = second compound 3.16 µM, first compound 0.1 µM
[33] = second compound 3.16 µM, first compound 0.316 µM
[34] = second compound 3.16 µM, first compound 1 µM
[35] = second compound 3.16 µM, first compound 3.16 µM
[36] = second compound 3.16 µM, first compound 10 µM
[37] = second compound 10 µM, first compound 0.0316 µM
[38] = second compound 10 µM, first compound 0.1 µM
[39] = second compound 10 µM, first compound 0.316 µM
[40] = second compound 10 µM, first compound 1 µM
[41] = second compound 10 µM, first compound 3.16 µM
[42] = second compound 10 µM, first compound 10 µM
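Note: spheroids exposed to compounds for 7 days before viability readout.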
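Throughout, for viability, T/C: luminescence signal used as surrogate for viable cell content.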

CC1COCCN1c1cc(-c2ccnn2C)c2ccnc(-c3ccn[nH]3)c2n1 (stereo not given) + Nc1ccc(C#CCN(C(=O)Cc2ncc(C(F)(F)F)cc2C(F)(F)F)c2ccc(F)cc2)nn1
inactive: viability, T/C [7] 87.5% | viability, T/C [8] 89.8% | viability, T/C [9] 79.2% | viability, T/C [10] 55.6% | viability, T/C [11] 56.2% | viability, T/C [12] 55.3% | viability, T/C [13] 102% | viability, T/C [14] 80.7% | viability, T/C [15] 77.7% | viability, T/C [16] 53.8% | viability, T/C [17] 57.6% | viability, T/C [18] 54.7% | viability, T/C [19] 95.5% | viability, T/C [20] 99.1% | viability, T/C [21] 70.2% | viability, T/C [22] 60.9% | viability, T/C [23] 51.7% | viability, T/C [24] 53.5% | viability, T/C [25] 96.2% | viability, T/C [26] 86.9% | viability, T/C [27] 78.8% | viability, T/C [28] 58.9% | viability, T/C [29] 58.5% | viability, T/C [30] 45.9% | viability, T/C [31] 88.7% | viability, T/C [32] 94.1% | viability, T/C [33] 79.1% | viability, T/C [34] 59.7% | viability, T/C [35] 49.3% | viability, T/C [36] 66.1% | viability, T/C [37] 102% | viability, T/C [38] 90.1% | viability, T/C [39] 80% | viability, T/C [40] 64.6% | viability, T/C [41] 55.9% | viability, T/C [42] 60.1%
> 10 µM: IC50 [1] | IC50 [2] | IC50 [3] | IC50 [5] | IC50 [6]
6.51 µM: IC50 [4]

O=C(c1cc(Cc2n[nH]c(=O)c3ccccc23)ccc1F)N1CCN(C(=O)C2CC2)CC1
> 10 µM: IC50 (curve of compound)
inactive: viability, T/C (compound 0.0316 µM) 99.8% and 99.5% and 107% | viability, T/C (compound 0.1 µM) 96.2% and 91.1% and 106% | viability, T/C (compound 0.316 µM) 91.9% and 115% and 107% | viability, T/C (compound 1 µM) 104% and 97.4% (2×) | viability, T/C (compound 3.16 µM) 98.6% and 112% and 104% | viability, T/C (compound 10 µM) 91.7% and 95.1% and 102%

COc1cccc(OCCCN)c1-c1cc(Nc2cnc(C#N)cn2)n[nH]1
inactive: viability, T/C (compound 0.00316 µM) 103% and 116% and 101% | viability, T/C (compound 0.01 µM) 89.6% and 98.2% and 94.2% | viability, T/C (compound 0.0316 µM) 68.6% and 71.2% and 98.3% | viability, T/C (compound 0.1 µM) 60.8% and 74% and 71.8% | viability, T/C (compound 0.316 µM) 63.5% and 75.3% and 79.5% | viability, T/C (compound 1 µM) 72.4% and 84.5% and 73.1%
> 1 µM: IC50 (curve of compound)

COc1cc2cc(C(=O)CCC(=O)O)sc2cc1OC + COC1C(OC(N)=O)C(O)C(Oc2ccc3c(O)c(NC(=O)c4ccc(O)c(CC=C(C)C)c4)c(=O)oc3c2C)OC1(C)C
> 10 µM: IC50 [1] | IC50 [2] | IC50 [3] | IC50 [4] | IC50 [5] | IC50 [6]
inactive: viability, T/C [7] 106% | viability, T/C [8] 93.8% | viability, T/C [9] 106% | viability, T/C [10] 101% | viability, T/C [11] 91.8% | viability, T/C [12] 94.3% | viability, T/C [13] 105% | viability, T/C [14] 97.7% | viability, T/C [15] 94.7% | viability, T/C [16] 91.7% | viability, T/C [17] 108% | viability, T/C [18] 102% | viability, T/C [19] 107% | viability, T/C [20] 93.8% | viability, T/C [21] 94.7% | viability, T/C [22] 89.8% | viability, T/C [23] 97.6% | viability, T/C [24] 94.2% | viability, T/C [25] 108% | viability, T/C [26] 87.4% | viability, T/C [27] 109% | viability, T/C [28] 100% | viability, T/C [29] 102% | viability, T/C [30] 92.1% | viability, T/C [31] 103% | viability, T/C [32] 104% | viability, T/C [33] 89% | viability, T/C [34] 95.1% | viability, T/C [35] 100% | viability, T/C [36] 98.1% | viability, T/C [37] 93.4% | viability, T/C [38] 88.2% | viability, T/C [39] 94.5% | viability, T/C [40] 97.6% | viability, T/C [41] 99.2% | viability, T/C [42] 96.7%

CC(C)n1c(=O)n(C)c2cnc3cc(F)c(-c4ccc(OCCCN5CCCCC5)nc4)cc3c21
inactive: viability, T/C (compound 0.0316 µM) 97.8% and 99.3% and 112% | viability, T/C (compound 0.1 µM) 103% and 100% and 93.3% | viability, T/C (compound 0.316 µM) 94% and 101% and 112% | viability, T/C (compound 1 µM) 92.8% and 108% and 100% | viability, T/C (compound 3.16 µM) 94.8% (2×) and 96.1% | viability, T/C (compound 10 µM) 77.7% and 95.8% and 91.3%
> 10 µM: IC50 (curve of compound)
